One molecule from patent US20210282443A1, “COMPOUNDS, COMPOSITIONS, AND METHODS FOR MODULATING SWEET TASTE” (Chromocell Corporation, priority 2016, published 2021) can be followed below.

In this assay the test system is perception of sweet taste of High Fructose Corn Syrup (HFCS). The assay is described as follows: 2AFC sip and spit sensory test, sweet taste of HFCS in Lemon Lime beverage. Particulars: Lemon Lime pH 3.1. Format: in vivo, humans. As to the method: The effect of the test compounds and combinations of test compounds on the perception of the sweet taste of a flavored beverage (referred to as Lemon Lime henceforth) of sweetener in humans was evaluated using a two-alternative forced choice “sip and spit” method (2AFC). The Lemon Lime solutions were prepared by adding sucrose equivalent (SE) quantities of high fructose corn syrup (HFCS) (by weight), to water to achieve the desired concentration. The lemon lime pH is 3.1. Compounds were first prepared as a 500-fold concentrated stock solution in 100% ethanol. These concentrated stocks were then added to the aqueous sweetener solutions to result in a final ethanol concentration of 0.2%. The control (positive and negative) samples were also normalized to 0.2% ethanol. This level of ethanol was not seen to contribute any perceived sweetness. The 2AFC test used for compound evaluation was a double blinded and randomized test where taste panelists (n≥15) evaluate a pair of sweetener solutions at a time—one sample contains aqueous sweetener solution plus compound (i.e. test) while the other contains aqueous sweetener solution at higher concentration without compound (i.e. positive control). Each test sample was compared against a positive control. For example, if the test sample contained 1× sweetener concentration with compound (e.g. 5brix HFCS with compound), the positive control sample contained a 1.1× sweetener concentration (e.g. 5.5brix HFCS without compound). In this manner, compounds were not assessed simply for an increase in perceived sweetness, but a significant increase in perceived sweetness above the positive control. […] Data were analyzed using binomial probabilities. Approximate levels of sweetness enhancement in column 5 of Table 1 were calculated as follows: Approximate levels of sweetness enhancement=Sweetener concentration of positive control surpassed by the test sample, divided by sweetener concentration for compound-containing sample (e.g. 1.5×=7.5brix HIFCS/5brix HIFCS).

Turning to `COc1cc(C2CC(=O)Oc3cc(C)cc(O)c32)ccc1O` (racemic) [Compound 1, 5-hydroxy-4-(4-hydroxy-3-methoxyphenyl)-7-methylchroman-2-one], for the setting “25 ppm compound, 10 brix HFCS / 7.14 brix HFCS”, the “Fold increase in perceived sweetness” value is greater than 1.4×. Also, the “Compund concentration with positive 2AFC results” value (test sample 7.14 brix HFCS vs positive control 10 brix HFCS, panelists n≥15) came out at 25 ppm. Where the note is “test sample 7.14 brix HFCS with 25 ppm compound”, the “Sweetener Concentration of positive control surpassed by test sample” value was found to be 10 brix HFCS.
